Source: ChEMBL document CHEMBL2034967, “Lipophilic amines as potent inhibitors of N-acylethanolamine-hydrolyzing acid amidase” (Bioorg Med Chem, 2012)
The source made the active and inactive calls. The calls are words filed in the database; no cut-off is given here.

Tests used:
[1] = target: T1, N-acylethanolamine-hydrolyzing acid amidase (Rattus norvegicus) (UniProt Q5KTC7); assay: Inhibition of Wistar/ST rat lung NAAA assessed as residual activity for conversion of [14C]PEA to [14C]palmitic acid at 100 uM after 20 mins relative to control
T1 sequence (whole entry): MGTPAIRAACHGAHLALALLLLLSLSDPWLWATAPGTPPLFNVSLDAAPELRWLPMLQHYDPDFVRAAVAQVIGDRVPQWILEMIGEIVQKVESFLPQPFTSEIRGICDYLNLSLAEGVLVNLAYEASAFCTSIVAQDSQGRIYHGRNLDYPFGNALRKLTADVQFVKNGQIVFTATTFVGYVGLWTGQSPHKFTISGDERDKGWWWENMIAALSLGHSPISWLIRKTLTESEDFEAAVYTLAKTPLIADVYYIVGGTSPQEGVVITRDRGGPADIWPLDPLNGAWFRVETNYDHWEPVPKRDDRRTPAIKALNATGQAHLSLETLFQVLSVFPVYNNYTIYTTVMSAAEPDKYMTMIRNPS

[2] = target: T1, N-acylethanolamine-hydrolyzing acid amidase (Rattus norvegicus); assay: Inhibition of Wistar/ST rat lung NAAA assessed as conversion of [14C]PEA to [14C]palmitic acid at 100 uM after 20 mins
[3] = target: T2, Fatty-acid amide hydrolase 1 (Rattus norvegicus) (UniProt P97612); assay: Inhibition of Wistar/ST rat liver FAAH assessed as conversion of [14C]PEA to [14C]palmitic acid at 100 uM at pH 8.5 after 20 mins
T2 sequence (whole entry): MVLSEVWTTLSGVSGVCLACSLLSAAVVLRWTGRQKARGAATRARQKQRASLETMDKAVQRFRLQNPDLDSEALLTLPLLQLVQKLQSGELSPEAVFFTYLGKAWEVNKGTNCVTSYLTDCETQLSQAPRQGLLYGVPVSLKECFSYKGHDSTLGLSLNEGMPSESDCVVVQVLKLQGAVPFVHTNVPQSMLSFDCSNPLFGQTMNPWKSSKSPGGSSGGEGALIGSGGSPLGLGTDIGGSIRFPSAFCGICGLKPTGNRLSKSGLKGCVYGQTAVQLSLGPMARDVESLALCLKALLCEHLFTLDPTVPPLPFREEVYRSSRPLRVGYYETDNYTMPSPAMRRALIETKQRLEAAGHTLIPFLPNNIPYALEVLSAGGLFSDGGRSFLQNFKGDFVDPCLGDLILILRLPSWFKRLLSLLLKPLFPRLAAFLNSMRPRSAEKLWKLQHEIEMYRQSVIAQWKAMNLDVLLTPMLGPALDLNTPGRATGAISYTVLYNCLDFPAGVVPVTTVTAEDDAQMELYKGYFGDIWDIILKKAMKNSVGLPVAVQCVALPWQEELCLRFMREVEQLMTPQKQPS

[4] = target: T1, N-acylethanolamine-hydrolyzing acid amidase (Rattus norvegicus); assay: Competitive inhibition of Wistar/ST rat lung NAAA using [14C]PEA as substrate at 5 uM by Line-Weaver Burk plot analysis
[5] = target: T3, N-acylethanolamine-hydrolyzing acid amidase (Rattus norvegicus, UniProt Q5KTC7); assay: Inhibition of Wistar/ST rat lung NAAA assessed as conversion of [14C]PEA to [14C]palmitic acid after 20 mins
T3 sequence (Q5KTC7 whole entry): T1 sequence (whole entry)

[6] = target: T2, Fatty-acid amide hydrolase 1 (Rattus norvegicus); assay: Inhibition of Wistar/ST rat liver FAAH assessed as conversion of [14C]PEA to [14C]palmitic acid at 100 uM at pH 5 after 20 mins
[7] = target: T1, N-acylethanolamine-hydrolyzing acid amidase (Rattus norvegicus); assay: Competitive inhibition of Wistar/ST rat lung NAAA using [14C]PEA as substrate at 10 uM by Line-Weaver Burk plot analysis

| Compound | Activity [1] [%] | further results |
| --- | --- | --- |
| CCCCCCCCCCCCCCCC(=O)OCCN | 50 | – |
| CCCCCCCCCCCC(=O)OCCN | 74 | – |
| CCCCCCCCCCCCCCOCCCN | 71 | – |
| CCCCCCCCCCCCOC(=O)CN | 34 | – |
| CCCCCCCCCCCCCCCNC(=O)C1CCCCC1 | – | inhibition [2]: inactive |
| CCCCCCCCCCCCOCCN | 40 | – |
| CCCCCCCCCCCCOC(=O)CCN | 51 | – |
| CCCCCCCCCCCCCCCCOC(=O)CN | 71 | – |
| CCCCCCCCCCCCCC(=O)OCCCN | 46 | – |
| CCCCCCCCCCCCCCOC(=O)CCN | 30 | – |
| CCCCCCCCCCCCCC(=O)OCCN | 46 | – |
| CCCCCCCCCCCCCCCCOCCN | 91 | – |
| CCCCCCCCCCCCCCCN [PENTADECYLAMINE] | – | inhibition [3]: inactive; inhibition [4]: Active; inhibition [2]: Active; IC50 [5]: 5.7 µM; inhibition [6]: 25% |
| CCCCC/C=C\C/C=C\C/C=C\C/C=C\CCCC(=O)NCC(=O)O | – | inhibition [2]: inactive |
| CCCCCCCCCCCCCCCC(=O)OCCCN | 48 | – |
| CCCCCCCCCCCCCCCC(=O)NCC(=O)O | – | inhibition [2]: inactive |
| CCCCCCCCCCCCOCCCN | 73 | – |
| CCCCCCCCCCCCCOC(=O)CCN | 29 | – |
| CCCCCCCCCC(=O)OCCN | 89 | – |
| CCCCCCCCCCCCN | – | inhibition [2]: Active |
| CCCCCCCCCCCCCCOCCN | 48 | – |
| CCCCCCCCCCCCCOC(=O)CN | 11 | inhibition [3]: inactive; IC50 [5]: 11.8 µM; inhibition [6]: 7%; inhibition [7]: Active |
| CCCCCCCCCCCC(=O)OCCCN | 63 | – |
| CCCCCCCCCCCCCCN | – | inhibition [2]: Active |
| CCCCCCCCCCCCCCCOC(=O)CN | 42 | – |
| CCCCCCCCCCCCCCOC(=O)CN | 16 | – |
| CCCCCCCCCC(=O)OCCCN | 55 | – |
| CCCCCCCCCCCCCCCC[N+](C)(C)C | – | inhibition [2]: Active |
| CCCCCCCCCCCCCCCCOCCCN | 84 | – |
| CCCCCCCCCCCCCCCCN | – | inhibition [2]: Active |
